Test results from PubChem BioAssay AID1845195 (Molecular Pharmacology Branch, DTP, NCI, 2023).

System: 156681-154-R-J1 tumor spheroid viability
Assay: Anticancer human tumor 156681-154-R-J1 patient-derived melanoma cell line growth inhibition
Settings: spheroids with HUVEC and MSC; for IC50: curve of first compound; for viability, T/C: stronger effect = lower value
Excerpt: Multicellular complex tumor spheroid response to DNA repair inhibitors in combination with DNA-damaging drugs
This study explores the anticancer activities of DNA-damaging drugs and inhibitors of DNA damage repair, both as single agents and in combinations. Complex tumor spheroids comprised of malignant cells, endothelial cells and mesenchymal stem cells served as an in vitro model for human solid tumors. This model system incorporates physiologically relevant features and patient-derived or established malignant cell lines with clinically relevant genetic alterations from many tumor types. Twenty-six patient-derived or established malignant cell lines were evaluated representing sarcoma, melanoma, small cell lung cancer (SCLC), non-small cell lung cancer (NSCLC), as well as bladder, ovarian and pancreatic cancers. The concentration ranges selected for each drug and investigational agent were based upon clinically achievable concentrations if the clinical Cmax of the agent was known.
Compounds. The drugs and compounds olaparib (NSC753686), talazoparib (NSC767125), berzosertib (NSC777718), elimusertib (NSC800525), nedisertib (NSC802822), VX-984 (NSC792969), AZD-1390 (NSC803789), temozolomide (NSC362856), topotecan (NSC609699), trabectedin (NSC813783), staurosporine (NSC755774), and gemcitabine (NSC613327) were obtained from the National Cancer Institute (NCI) Developmental Therapeutics Program Chemical Repository. The FDA-approved anticancer drug set is available from the Developmental Therapeutics Program at https://dtp.cancer.gov/organization/dscb/obtaining/available_plates.htm. […] The stock solutions were prepared in dimethyl sulfoxide (DMSO, Sigma-Aldrich, St. Louis, MO, cat. D2650) at 400-fold the tested concentration and stored at -70 degrees C. Prior to their use, the stock solutions were diluted in fresh medium and the final DMSO concentration in the assay was 0.25% (v/v). All drugs and investigational agents were tested over a range starting from a high concentration at or near the clinical Cmax and decreasing in half-log increments. If the clinical Cmax for an agent had not been determined, the highest concentration tested was 10 microM.
Cell Lines. The patient-derived cancer cell (PDC) lines: 156681-154-R-J1-PDC, 283228-195-R-J1-PDC, 287954-098-R-J1-PDC, 292921-168-R-J2-PDC, 349418-098-R-PDC, 425362-245-T-J1-PDC, 556581-035-R-J1-PDC, and BL0293-F563-PDC were received from the NCI Patient-Derived Models Repository (PDMR, https://pdmr.cancer.gov). The established cell lines HS-SY-2 (RRID:CVCL_8719), MPNST, and SYO-1 (RRID:CVCL_7146) were obtained from the Sloan Kettering Institute. The alveolar soft parts sarcoma cell line ASPS-1 (RRID:CVCL_S738) was established at the NCI and grown from internal seed stocks. The following established cell lines were purchased from the American Type Culture Collection (ATCC, Manassas, VA): G-401 (ATCC, cat. CRL-1441, RRID:CVCL_0270), SW982 (ATCC, cat. HTB-93, RRID:CVCL_1734), VA-ES-BJ (ATCC, cat. CRL-2138, RRID:CVCL_1785), NCI-H719 (ATCC, cat. CRL-5837, RRID:CVCL_1582), NCI-H196 (ATCC, cat. CRL-5823, RRID:CVCL_1509), NCI-H841 (ATCC, cat. CRL-5845, RRID:CVCL_1595), NCI-H1618 (ATCC, cat. CRL-5879, RRID:CVCL_1480), NCI-H1876 (ATCC, cat. CRL-5902, RRID:CVCL_1503), DMS 114 (ATCC, cat. CRL-2066; RRID:CVCL_1174), NCI-H211 (ATCC, cat. CRL-5824; RRID:CVCL_1529), and SW 1271 (ATCC, cat. CRL-2177, RRID:CVCL_1716). The small cell lung cancer cell line COR-L88 was purchased from Sigma-Aldrich (cat. 92031917-1VL, RRID:CVCL_1141). The non-small cell lung cancer cell lines NCI-H226 (RRID:CVCL_1544) and NCI-H322M (RRID:CVCL_1557) were established at the NCI and grown from internal seed stocks. Pooled donor human umbilical vein endothelial cells (HUVEC, Lonza, cat. CC-2519) and human mesenchymal stem cells (hMSC, Lonza, cat. PT-2501) were purchased from Lonza (Walkersville, MD).
Cell Culture. All cells were maintained in an incubator at 37 degrees C and 5% CO2 with 95% humidity. […]
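Further: spheroids exposed to compounds for 7 days before readout.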
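Wherever viability, T/C is given: percent of vehicle control viability where 100% = DMSO-treated spheroids.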

O=C(c1cc(Cc2n[nH]c(=O)c3ccccc23)ccc1F)N1CCN(C(=O)C2CC2)CC1 + Cn1nnc2c(C(N)=O)ncn2c1=O
IC50 (second compound 1 µM): > 30 µM
IC50 (second compound 3.16 µM): 18.2 µM
IC50 (second compound 10 µM): 14.7 µM
IC50 (second compound 31.6 µM): 1.2 µM
IC50 (second compound 100 µM): < 0.0949 µM
viability, T/C (second compound 1 µM, first compound 0.0949 µM): 92.1%
viability, T/C (second compound 1 µM, first compound 0.3 µM): 74.6%
viability, T/C (second compound 1 µM, first compound 0.949 µM): 97.5%
viability, T/C (second compound 1 µM, first compound 3 µM): 80.2%
viability, T/C (second compound 1 µM, first compound 9.49 µM): 66.5%
viability, T/C (second compound 1 µM, first compound 30 µM): 50.3%
viability, T/C (second compound 3.16 µM, first compound 0.0949 µM): 81.1%
viability, T/C (second compound 3.16 µM, first compound 0.3 µM): 86.4%
viability, T/C (second compound 3.16 µM, first compound 0.949 µM): 78.3%
viability, T/C (second compound 3.16 µM, first compound 3 µM): 74.2%
viability, T/C (second compound 3.16 µM, first compound 9.49 µM): 52.1%
viability, T/C (second compound 3.16 µM, first compound 30 µM): 48.3%
viability, T/C (second compound 10 µM, first compound 0.0949 µM): 85.2%
viability, T/C (second compound 10 µM, first compound 0.3 µM): 81.3%
viability, T/C (second compound 10 µM, first compound 0.949 µM): 70.5%
viability, T/C (second compound 10 µM, first compound 3 µM): 68.5%
viability, T/C (second compound 10 µM, first compound 9.49 µM): 55.6%
viability, T/C (second compound 10 µM, first compound 30 µM): 40.9%
viability, T/C (second compound 31.6 µM, first compound 0.0949 µM): 69%
viability, T/C (second compound 31.6 µM, first compound 0.3 µM): 63.3%
viability, T/C (second compound 31.6 µM, first compound 0.949 µM): 48.4%
viability, T/C (second compound 31.6 µM, first compound 3 µM): 44.5%
viability, T/C (second compound 31.6 µM, first compound 9.49 µM): 35.6%
viability, T/C (second compound 31.6 µM, first compound 30 µM): 27.4%
viability, T/C (second compound 100 µM, first compound 0.0949 µM): 36.8%
viability, T/C (second compound 100 µM, first compound 0.3 µM): 34.4%
viability, T/C (second compound 100 µM, first compound 0.949 µM): 27.4%
viability, T/C (second compound 100 µM, first compound 3 µM): 22.6%
viability, T/C (second compound 100 µM, first compound 9.49 µM): 15.1%
viability, T/C (second compound 100 µM, first compound 30 µM): 21.6%

COc1ccc([C@@H](O)c2cc(-c3ncnc4cc(N5CCOCC5)ccc34)c(F)cc2Cl)nn1 + Cn1nnc2c(C(N)=O)ncn2c1=O
IC50 (second compound 1 µM): > 10 µM
IC50 (second compound 3.16 µM): > 10 µM
IC50 (second compound 10 µM): 7.33 µM
IC50 (second compound 31.6 µM): > 10 µM
IC50 (second compound 100 µM): > 10 µM
viability, T/C (second compound 1 µM, first compound 0.0316 µM): 104%
viability, T/C (second compound 1 µM, first compound 0.1 µM): 98.4%
viability, T/C (second compound 1 µM, first compound 0.316 µM): 86%
viability, T/C (second compound 1 µM, first compound 1 µM): 70.5%
viability, T/C (second compound 1 µM, first compound 3.16 µM): 72.2%
viability, T/C (second compound 1 µM, first compound 10 µM): 53.3%
viability, T/C (second compound 3.16 µM, first compound 0.0316 µM): 101%
viability, T/C (second compound 3.16 µM, first compound 0.1 µM): 111%
viability, T/C (second compound 3.16 µM, first compound 0.316 µM): 77.7%
viability, T/C (second compound 3.16 µM, first compound 1 µM): 79.1%
viability, T/C (second compound 3.16 µM, first compound 3.16 µM): 62%
viability, T/C (second compound 3.16 µM, first compound 10 µM): 54.8%
viability, T/C (second compound 10 µM, first compound 0.0316 µM): 71.5%
viability, T/C (second compound 10 µM, first compound 0.1 µM): 85.4%
viability, T/C (second compound 10 µM, first compound 0.316 µM): 73.8%
viability, T/C (second compound 10 µM, first compound 1 µM): 66.2%
viability, T/C (second compound 10 µM, first compound 3.16 µM): 70.7%
viability, T/C (second compound 10 µM, first compound 10 µM): 42.9%
viability, T/C (second compound 31.6 µM, first compound 0.0316 µM): 60%
viability, T/C (second compound 31.6 µM, first compound 0.1 µM): 67.3%
viability, T/C (second compound 31.6 µM, first compound 0.316 µM): 71.8%
viability, T/C (second compound 31.6 µM, first compound 1 µM): 47.2%
viability, T/C (second compound 31.6 µM, first compound 3.16 µM): 77.4%
viability, T/C (second compound 31.6 µM, first compound 10 µM): 45.2%
viability, T/C (second compound 100 µM, first compound 0.0316 µM): 55%
viability, T/C (second compound 100 µM, first compound 0.1 µM): 55.7%
viability, T/C (second compound 100 µM, first compound 0.316 µM): 48.1%
viability, T/C (second compound 100 µM, first compound 1 µM): 64.4%
viability, T/C (second compound 100 µM, first compound 3.16 µM): 54.7%
viability, T/C (second compound 100 µM, first compound 10 µM): 48.4%
